Measurements taken from US20170369492A1 (Takeda Pharmaceutical Company Limited, priority 2014, published 2017).
pEC50: −log10 of the molar value.

Target: T1, human GPR43 (Homo sapiens, UniProt O15552)
T1 construct: expressed in transfected cells
T1 sequence (O15552 1-330): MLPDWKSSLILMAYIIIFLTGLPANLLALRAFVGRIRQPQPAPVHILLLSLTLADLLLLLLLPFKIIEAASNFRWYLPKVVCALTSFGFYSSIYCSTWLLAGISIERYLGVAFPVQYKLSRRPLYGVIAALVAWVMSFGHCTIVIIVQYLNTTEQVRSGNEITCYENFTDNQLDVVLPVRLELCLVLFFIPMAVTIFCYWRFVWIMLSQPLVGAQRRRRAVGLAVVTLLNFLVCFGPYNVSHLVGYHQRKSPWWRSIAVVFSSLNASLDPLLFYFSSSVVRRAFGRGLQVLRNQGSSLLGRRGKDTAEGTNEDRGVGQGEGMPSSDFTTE
Assay: Ca-Flux Functional Assay: Determination of Agonist/Positive Allosteric Modulator (PAM) Activity
Format: cell-based
Conditions: CHO-K1 Gα16 cells stably expressing human GPR43; compound added in the presence of EC20 sodium acetate; intracellular Ca2+ by FLIPR; agonist/PAM activity not distinguished
Description: Ca-Flux Functional Assay: Determination of Agonist/Positive Allosteric Modulator (PAM) Activity
GPR43 agonist/PAM activity was determined by measuring changes in intracellular calcium levels using a Ca^2+ sensitive fluorescent dye. The changes in fluorescent signal were monitored by FLIPR (manufactured by Molecular Devices). GPR43 mediated increases in intracellular Ca^2+ concentration were readily detected upon activation with sodium acetate. Prior to the assay (24 hours), CHO-K1 Gα16 cells stably expressing human GPR43 were-seeded in cell culture medium in black, clear-bottom 384-well plates (Corning Inc) and grown overnight at 37° C., 5% CO2. On the day of the assay, cell culture media was removed and cells were loaded with Calcium 5 Dye (Molecular Devices) diluted in HBSS containing 25 mM HEPES, 2.5 mM Probenecid, 0.1% BSA for 1 hour at 37° C., 5% CO2. 10 point half log concentration response curves of sodium acetate from 10 mM were conducted prior to the testing of compounds to calculate the sodium acetate concentration that produces 20% of the maximal response (EC20). Test compounds (at to point half log concentration response curves from 10 μM) were added in the presence of sodium acetate to achieve a final concentration that produces approximately 20% maximal response as calculated from the previous experiment. The changes in fluorescent signal were monitored by FLIPR upon addition of the compound/EC20 sodium acetate mix. The EC50 values were determined from ten point concentration response curves. Curves were generated using the average of two wells for each data point.
The above assay detects both GPR43 receptor agonists and positive allosteric modulators of the GPR43 receptor, without distinguishing between the two. Activity in either regard is useful in the treatment of conditions associated with GPR43 receptor activity.

| pEC50 | SMILES |
| --- | --- |
| 6.56 | Nc1c(S(=O)(=O)c2ccccc2)c2nccnc2n1[C@@H]1C[C@H]2CC[C@@H]1C2 (relative stereo) [Example 53, 5-((1R*,2R*,4S*)-bicyclo[2.2.1]heptan-2-yl)-7-(phenylsulfonyl)-5H-pyrrolo[2,3-b)pyrazin-6-amine] |
| 5.64 | Nc1c(S(=O)(=O)Nc2cccnc2)c2nccnc2n1C1CCCCC1 [Example 42, 6-amino-5-cyclohexyl-N-(pyridin-3-yl)-5H-pyrrolo[2,3-b]pyrazine-7-sulfonamide] |
| 7.11 | COc1ccc(S(=O)(=O)c2c(N)n(C3CCCCC3)c3nccnc23)cc1 [Example 108, 5-cyclohexyl-7-[(4-methoxybenzene)-sulfonyl]-5H-pyrrolo[2,3-b]pyrazin-6-amine] |
| 6.55 | Nc1c(S(=O)(=O)c2ccccc2)c2ncccc2n1C1CCC(F)(F)CC1 [Example 21, 3-(benzenesulfonyl)-1-(4,4-difluorocyclohexyl)-1H-pyrrolo[3,2-b]pyridin-2-amine] |
| 6.52 | Nc1c(S(=O)(=O)c2ccc(F)cc2)c2nccnc2n1C1CCCCC1 [Example 6, 5-cyclohexyl-7-[(4-fluorobenzene)sulfonyl]-5H-pyrrolo[2,3-b]pyrazin-6-amine] |
| 6.91 | Cc1ccc(S(=O)(=O)c2c(N)n(C3CCCCC3)c3nccnc23)cc1 [Example 3] |
| 5.16 | Nc1c(S(=O)(=O)c2ccccc2)c2nccnc2n1C1CCC1 [Example 43, 5-cyclobutyl-7-(phenylsulfonyl)-5H-pyrrolo[2,3-b]pyrazin-6-amine] |
| 6.15 | Nc1c(S(=O)(=O)c2ccccc2)c2ccnnc2n1C1CCCCC1 [Example 28, 5-(benzenesulfonyl)-7-cyclohexyl-7H-pyrrolo[2,3-c]pyridazin-6-amine] |
| 5.22 | CN(C)c1ncnc2c(S(=O)(=O)c3ccccc3)c(N)n(C3CCCCC3)c12 [Example 34, 7-(benzenesulfonyl)-5-cyclohexyl-4-N,4-N-dimethyl-5H-pyrrolo[3,2-d]pyrimidine-4,6-diamine] |
| 5.48 | Nc1c(S(=O)(=O)NCc2ccccc2)c2nccnc2n1C1CCCCC1 [Example 70, 6-amino-N-benzyl-5-cyclohexyl-5H-pyrrolo[2,3-b]pyrazine-7-sulfonamide] |
| 5.90 | Nc1c(S(=O)(=O)c2ccccc2)c2ncccc2n1C1CCCCC1 [Example 9, 3-(benzenesulfonyl)-1-cyclohexyl-1H-[3,2-b]pyridin-2-amine] |
| 6.76 | CC(C)Oc1ccc(S(=O)(=O)c2c(N)n(C3CCCCC3)c3nccnc23)cc1 [Example 7, 5-cyclohexyl-7-{[4-(propan-2-yloxy)benzene]sulfonyl}-5H-pyrrolo[2,3-b]pyrazin-6-amine] |
| 5.59 | COC(=O)Nc1c(S(=O)(=O)c2ccccc2)c2nccnc2n1C1CCCCC1 [Example 24, methyl N-[7-(benzenesulfonyl)-5-cyclohexyl-5H-pyrrolo[2,3-b]pyrazin-6-yl]carbamate] |
| 5.16 | Nc1c(S(=O)(=O)c2ccccc2)c2ncnc(O)c2n1C1CCC(F)(F)CC1 [Example 31, 6-amino-5-(4,4-difluorocyclohexyl)-7-(phenylsulfonyl)-5H-pyrrolo[3,2-d]pyrimidin-4-ol] |
| 5.14 | CCC1(Cn2c(N)c(S(=O)(=O)c3ccccc3)c3nccnc32)CC1 [Example 55, 5-((1-ethylcyclopropyl)-methyl)-7-(phenylsulfonyl)-5H-pyrrolo[2,3-b]pyrazin-6-amine] |
| 6.12 | Nc1c(S(=O)(=O)c2ccccc2)c2nccnc2n1CCC1CCC1 [Example 50, 5-(2-cyclobutylethyl)-7-(phenylsulfonyl)-5H-pyrrolo[2,3-b]pyrazin-6-amine] |
| 5.34 | COc1ccc(S(=O)(=O)c2c(N)n(C3CCCCC3)c3nccnc23)cn1 [Example 115, 5-cyclohexyl-7-(6-methoxypyridine-3-sulfonyl)-5H-pyrrolo[2,3-b]pyrazin-6-amine] |
| 5.64 | Cc1ccc(S(=O)(=O)c2c(N)n(C3CCCC3)c3cccnc23)cc1 [Example 10, 1-cyclopentyl-3-[(4-methylbenzene)sulfonyl]-1H-pyrrolo[3,2-b]pyridin-2-amine] |
| 5.97 | Nc1c(S(=O)(=O)N2CCC(Oc3ccccc3)CC2)c2nccnc2n1C1CCCCC1 [Example 85, 5-cyclohexyl-7-(4-phenoxypiperidine-1-sulfonyl)-5H-pyrrolo[2,3-b]pyrazin-6-amine] |

The next lines start with the molecule.

| SMILES | pEC50 |
| --- | --- |
| Nc1c(S(=O)(=O)N2C3CCC2CC(O)C3)c2nccnc2n1C1CCCCC1 (stereo not drawn) [Example 104, 8-{6-amino-5-cyclohexyl-5H-pyrrolo[2,3-b]pyrazine-7-sulfonyl}-8-azabicyclo[3.2.1]octan-3-ol] | 5.51 |
| Nc1c(S(=O)(=O)N2CC(n3cccn3)C2)c2nccnc2n1C1CCCCC1 [Example 101, 5-cyclohexyl-7-[3-(1H-pyrazol-1-yl)azetidine-1-sulfonyl]-5H-pyrrolo[2,3-b]pyrazin-6-amine] | 5.15 |
| Nc1c(S(=O)(=O)N2CCC(CO)CC2)c2nccnc2n1C1CCCCC1 [Example 106, (1-{6-amino-5-cyclohexyl-5H-pyrrolo[2,3-b]pyrazine-7-sulfonyl}piperidin-4-yl)methanol] | 5.52 |
| COc1ccc(S(=O)(=O)c2c(N)n(C3CCC(F)(F)CC3)c3nccnc23)cc1 [Example 13, 5-(4,4-difluorocyclohexyl)-7-[(4-methoxybenzene)sulfonyl]-5H-pyrrolo[2,3-b]pyrazin-6-amine] | 6.89 |
| CCOC1CCN(S(=O)(=O)c2c(N)n(C3CCCCC3)c3nccnc23)CC1 [Example 65, 5-cyclohexyl-7-((4-ethoxypiperidin-1-yl)sulfonyl)-5H-pyrrolo[2,3-b]pyrazin-6-amine] | 6.68 |
| Nc1c(S(=O)(=O)N2CCSCC2)c2nccnc2n1C1CCCCC1 [Example 78, 5-cyclohexyl-7-(thiomorpholine-4-sulfonyl)-5H-pyrrolo[2,3-b]pyrazin-6-amine] | 6.47 |
| COC1CN(S(=O)(=O)c2c(N)n(C3CCCCC3)c3nccnc23)C1 [Example 64, 5-cyclohexyl-7-((3-methoxyazetidin-1-yl)sulfonyl)-5H-pyrrolo[2,3-b]pyrazin-6-amine] | 5.15 |
| CN1CCN(S(=O)(=O)c2c(N)n(C3CCCCC3)c3nccnc23)CC1 [Example 63, 5-cyclohexyl-7-((4-methylpiperazin-1-yl)sulfonyl)-5H-pyrrolo[2,3-b]pyrazin-6-amine] | 5.10 |
| Nc1c(S(=O)(=O)NCC2CCC2)c2nccnc2n1C1CCCCC1 [Example 74, 6-amino-N-(cyclobutylmethyl)-5-cyclohexyl-5H-pyrrolo[2,3-b]pyrazine-7-sulfonamide] | 6.49 |
| COCCNS(=O)(=O)c1c(N)n(C2CCCCC2)c2nccnc12 [Example 90, 6-amino-5-cyclohexyl-N-(2-methoxyethyl)-5H-pyrrolo[2,3-b]pyrazine-7-sulfonamide] | 5.21 |
| CC1(C)CC1Cn1c(N)c(S(=O)(=O)c2ccccc2)c2nccnc21 (stereo not drawn) [Example 56, 5-((2,2-dimethylcyclopropyl)methyl)-7-(phenylsulfonyl)-5H-pyrrolo[2,3-b]pyrazin-6-amine] | 5.88 |
| Nc1c(S(=O)(=O)C2CCCCC2)c2nccnc2n1C1CCCCC1 [Example 12, 7-(cyclohexanesulfonyl)-5-cyclohexyl-5-pyrrolo[2,3-b]pyrazin-6-amine] | 6.17 |
| CCCN(C)S(=O)(=O)c1c(N)n(C2CCCCC2)c2nccnc12 [Example 60, 6-amino-5-cyclohexyl-N-methyl-N-propyl-5H-pyrrolo[2,3-b]pyrazine-7-sulfonamide] | 5.85 |
| Nc1c(S(=O)(=O)N2CC(N3CCCCC3)C2)c2nccnc2n1C1CCCCC1 [Example 100, 5-cyclohexyl-7-[3-(piperidin-1-yl)azetidine-1-sulfonyl]-5H-pyrrolo[2,3-b]pyrazin-6-amine] | 5.41 |
| Nc1c(S(=O)(=O)N2CCCCCC2)c2nccnc2n1C1CCCCC1 [Example 77, 7-(azepane-1-sulfonyl)-5-cyclohexyl-5H-pyrrolo[2,3-b]pyrazin-6-amine] | 6.54 |
| Nc1c(S(=O)(=O)N2CCC(OCC3CC3)CC2)c2nccnc2n1C1CCCCC1 [Example 107, 5-cyclohexyl-7-[4-(cyclopropylmethoxy)piperidine-1-sulfonyl]-5H-pyrrolo[2,3-b]pyrazin-6-amine] | 6.49 |
| CCOc1ncnc2c(S(=O)(=O)c3ccccc3)c(N)n(C3CCC(F)(F)CC3)c12 [Example 29, 7-(benzenesulfonyl)-5-(4,4-difluorocyclohexyl)-4-ethoxy-5H-pyrrolo[3,2-d]pyrimidin-6-amine] | 7.51 |
